PubChem BioAssay AID2305 (GlaxoSmithKline (GSK), 2010)

What follows are compounds tested on P. falciparum 3D7 growth, pLDH absorbance (assay: P. falciparum 3D7 growth inhibition, dose response, strain 3D7 (AID 2305)).

`CN1CCCN(Cc2ccc(-c3ccc(NC(=O)c4cccc(Cl)c4)cc3)cc2)CC1` and `O=C(Nc1ccc(Cn2nc(Cl)c(N3CCCNCC3)cc2=O)cc1)Nc1ccc(-c2ccccc2)cc1` are within 1.5-fold of each other in IC50: 860 nM for the first, 840 nM for the second.

`Nc1ncc(-c2ccsc2)c2ccc(-c3cc(NCc4ccccc4)ncn3)cc12` and `COc1ccc(-c2cnc(NCc3ccccc3)nc2)cc1CNC1CCN(C)CC1` are within 1.5-fold of each other in IC50: 860 nM for the first, 780 nM for the second.

`CCCCCOc1ccc(C=NNc2nc(-c3ccccc3)cc(=O)[nH]2)cc1` and `Cc1cc(NN=Cc2ccc(Cl)cc2)c2cc(F)ccc2n1` are within 1.5-fold of each other in IC50: 890 nM for the first, 830 nM for the second.

Compared with `CCCCCCCCc1c(C)[nH]c(C)c(Cl)c1=O`, `CCCCCCC(C)c1cc(O)c2c(c1)OC(C)(C)c1ccncc1-2` (stereo not given) is 3.5-fold higher in IC50: 230 nM for the first, 800 nM for the second.

First: c1cncc(-c2cc(N3CCCCC3)nc(-c3ccncc3)n2)c1
Second: OC1CCCN(Cc2ccc(-c3cccc(-c4nc5ccccc5[nH]4)c3)cc2)C1 (stereo not given)
The IC50 of the first is 1.7-fold lower: 770 nM for the first, 1340 nM for the second.

`Cc1cccc2[nH]c(-c3cccc(-c4ccc(CNCCCN5CCCC5=O)cc4)c3)nc12` and `CS(=O)(=O)NCCCNCc1cccc(-c2ccc(-c3nc4ccc(C(F)(F)F)cc4[nH]3)cc2)c1` are within 1.5-fold of each other in IC50: 960 nM for the first, 1000 nM for the second.

First: CC1(C)CCC(C)(C)c2c1ccc(C1CCN(CCCCNC(=O)c3ccc(-c4ccc(Cl)cc4)cc3)CC1)c2O
Second: CC(Oc1c(C2CCN(CCCCNC(=O)c3ccc(-c4ccc(Cl)cc4)cc3)CC2)ccc2c1CCCC2)C(N)=O (stereo not given)
The IC50 of the first is 2-fold lower: 480 nM for the first, 950 nM for the second. The first is the more potent here.

`O=S(=O)(Nc1cc2c(cc1O)CCNCC2)c1ccc(-c2ccc(Cl)cc2)cc1` and `O=[N+]([O-])c1cccc(S(=O)(=O)N2CCN(CC(O)COc3ccc(-c4ccccc4)cc3)CC2)c1` (stereo not given) are within 1.5-fold of each other in IC50: 980 nM for the first, 1360 nM for the second.

Compared with `O=C(Cc1cccc(Cl)c1)Nc1cccc(-c2c[nH]c3nc(Nc4cccc(O)c4)ncc23)c1`, `CC(=O)Nc1cccc(Nc2nccc(-c3c(-c4cccc(NC(=O)c5c(F)cccc5F)c4)nn4ncccc34)n2)c1` is 4.1-fold lower in IC50: 730 nM for the first, 180 nM for the second. The second is the more potent here.

`CCCc1cc(Cc2cnc(N)nc2N)cc(OC)c1OC` and `COc1ccc(CCNCC(O)c2cccc(Br)c2)c(Cl)c1OC` (stereo not given) are within 1.5-fold of each other in IC50: 990 nM for the first, 1040 nM for the second.

`OCCC1CCN(Cc2ccc(-c3ccc(-c4nc5ccccc5[nH]4)cc3)cc2)CC1` and `Cc1ccc2nc(-c3ccc(C(=O)NC4CCN(Cc5ccccc5)CC4)s3)[nH]c2c1` are within 1.5-fold of each other in IC50: 770 nM for the first, 1010 nM for the second.

`CCOC(=O)CN(c1ccc(Br)cc1OCCOc1cc(Br)ccc1N(CC(=O)OCC)C(C)C(=O)OCC)C(C)C(=O)OCC` (stereo not given) and `COc1cc2ccccc2c(OC)c1CCNCCCCNCCc1c(OC)cc2ccccc2c1OC` are within 1.5-fold of each other in IC50: 810 nM for the first, 890 nM for the second.

`Cc1noc(-c2ccc3c(c2)CCN(CCC2CCC(NC(=O)/C=C/c4cccc(Cl)c4)CC2)CC3)n1` (stereo not given) and `O=C(/C=C/c1ccc(Cl)c(Cl)c1)NCCCCCCN1CCN(C(=O)Nc2cc(Cl)nc(Cl)c2)CC1` are within 1.5-fold of each other in IC50: 1000 nM for the first, 780 nM for the second.

`COc1ccc(-c2cnc3[nH]cc(-c4ccc(C(=O)O)c(C)c4)c3c2)cn1` and `CC(=O)Nc1nc(C(=O)Nc2ccc(-c3cccc(-c4nc5ccc(F)cc5[nH]4)c3)cc2)cs1` are within 1.5-fold of each other in IC50: 310 nM for the first, 290 nM for the second.

`CN(C)CCOc1ccc(N2CCN(CCCCNC(=O)c3ccc(/C=C/c4cc(Cl)cc(Cl)c4)cc3)CC2)cc1` and `CC(C)COc1ccc(Cl)cc1Cc1ccc(-c2nc3ccc(N4CCN(C)CC4)cc3[nH]2)o1` are within 1.5-fold of each other in IC50: 1000 nM for the first, 950 nM for the second.

`N=C1C=C(N)C(=O)c2ccccc21` and `CCc1cccc2c(C#N)cn(CC(=O)NCCc3ccccc3)c12` are within 1.5-fold of each other in IC50: 1050 nM for the first, 890 nM for the second.

Going from `COc1ccc2nc(C)cc(NCc3ccc4ccccc4c3)c2c1` to `COc1ccc(-c2nc3ccc(C)nc3nc2-c2ccc(OC)cc2)cc1`, the IC50 rises from 470 nM to 1110 nM (2.4-fold). The first is the more potent here.

Going from `N#Cc1cccc(CNC(=O)c2cccc(Nc3ccnc4ccc(F)cc34)c2)c1` to `Cc1cccc2[nH]c(-c3ccc(-c4ccc(NC(=O)Nc5cccc(C#N)c5)cc4)s3)nc12`, the IC50 falls from 990 nM to 120 nM (8.2-fold).

First: CS(=O)(=O)c1ccc(CCNCc2ccc(-c3ccc(CN(C(=O)c4ccc(Cl)nc4)C4CCN(Cc5ccccc5)CC4)cc3)nc2)cc1
Second: CC(C)CNCc1cccc(-c2ccc(CNC3CCN(Cc4ccccc4)CC3)cc2)c1
The IC50 of the first is 3-fold higher: 800 nM for the first, 270 nM for the second. The second is the more potent here.

`Ic1cc(CNC2CCCCC2)ccc1OCc1cccc(COc2ccc(CNC3CCCCC3)cc2I)c1` and `O=C(Nc1ccc(OC2CCN(Cc3ccsc3)CC2)c(Cl)c1)c1ccc(F)cc1` are within 1.5-fold of each other in IC50: 830 nM for the first, 650 nM for the second.

Compared with `COc1ccc(-c2onc(C(F)(F)F)c2-c2ccc(Br)cc2)c(O)c1`, `Cc1[nH]c(C)c(-c2ccc(Oc3cccc(OC(F)(F)F)c3)cc2)c(=O)c1Br` is 12-fold lower in IC50: 240 nM for the first, 20 nM for the second. The second is the more potent here.

Compared with `CCCCOc1c(CNCCCCCCNCc2ccc3ccccc3c2OCCCC)ccc2ccccc12`, `COc1ccc2nccc([C@@H](O)CN3CCC(NC(=O)C(c4cc5ccccc5o4)N4CCN(c5ccccc5)CC4)CC3)c2c1` (stereo not given in full) is 3.6-fold lower in IC50: 870 nM for the first, 240 nM for the second.

`CCN1CCCC(CNC(=O)/C(=C/C=C/c2cc3cc(Cl)c(Cl)cc3[nH]2)OC)C1` (stereo not given) and `CC(C)(C)NC(=O)c1ccc(Oc2ccc(OC(F)(F)F)cc2)c(NC(=O)C(C)(C)C)c1` are within 1.5-fold of each other in IC50: 890 nM for the first, 980 nM for the second.

`NC(=O)c1ccc(NC(=O)CN(Cc2ccc(Cl)cc2)S(=O)(=O)c2ccccc2)cc1` and `NC(N)=NCCCCN(Cc1ccccc1)c1ccccc1` are within 1.5-fold of each other in IC50: 650 nM for the first, 740 nM for the second.

Going from `CCCOc1ccc(N2C(N)=NC(N)=NC2(C)C)cc1` to `O=C(COc1ccccc1)Nn1cnc2ccccc21`, the IC50 rises from 490 nM to 1050 nM (2.1-fold). The first is the more potent here.
